According to PubChem BioAssay AID179 (DTP/NCI, 2004):
Several values for one entry are separate records, joined by “and”; a condition that tells them apart may be missing. Equal entries are not always repeated. Activity calls are given as the source filed them.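 The calls were made as follows: active = compounds giving half or more protection of infected cells from virus-caused growth loss, again on retest; inactive = the rest.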 Where a SMILES comes first, the peptide text is derived from it. Bridges are numbered along the chain shown (N, C = ends). [ ]: non-standard residue; d: D form. The star is where a group is joined. ξ: configuration not given here. X16 = O=C(/C=C/C=C/C=C/C=C/C=C/C(=O)*)NC1=C(O)CCC1=O; NMeA = CN[C@@H](C)C(=O)O; ξF = NC(Cc1ccccc1)C(=O)O; ξA = CC(N)C(=O)O

Test system: CEM cells HIV-1 protection, formazan growth assay
Test: NCI AIDS Antiviral Assay
Settings: for IC50: measured here: growth of uninfected CEM cells
Outline: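 Five concentrations of each compound were applied to infected and uninfected human CEM cells. Protection from HIV-1 was judged from growth measured with a soluble formazan assay.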

Structure (SMILES) | EC50 | IC50 [µM] | outcome
CC(C)(CCCCC(C)(C)NCC1COc2ccccc2O1)NCC1COc2ccccc2O1 (configuration not stated) | > 200 µM | 7.24 | –
O=[N+]([O-])c1ccccc1S(=O)(=O)c1ccccc1[N+](=O)[O-] | 1.26 µM | 145 | –
Cc1nc(-n2nc(-c3ccccc3)cc2-c2ccccc2)sc1C(=O)CC(=O)C(=O)Nc1ccc(O)cc1 | > 347 µM | > 347 | –
Cc1cnc2c(c1)C(=O)N(c1ccc([N+](=O)[O-])cc1)S2(=O)=O | > 200 µM | 17.4 | –
O=C(NCC1(O)N=C(c2ccc(F)cc2)c2ccsc2-n2cccc21)c1ccc(Cl)cc1Cl (configuration not stated) | > 200 µM | 18.2 | –
C#[N+]CCOP(=O)(OCC1OC(n2cc(C)c(=O)[nH]c2=O)CC1N=[N+]=[N-])O[C@H]1CC[C@@]2(C)C(=CC[C@H]3[C@@H]4CC[C@H](C(C)/C=C/C(CC)C(C)C)[C@@]4(C)CC[C@@H]32)C1 (some centres not stated) | 1.62 µM and 5.89 µM | > 200 | –
C[CH2][Ge]([CH2]C)([CH2]C)[O]C(=O)C([O][Ge]([CH2]C)([CH2]C)[CH2]C)c1ccccc1 (configuration not stated) | > 200 µM | 20.9 | –
COc1cc(/C=N/NC(=O)CC(=O)N(C(=O)c2ccc(Cl)cc2)c2ccc(C)cc2)ccc1O | > 195 µM | > 195 | –
OCCN1c2ccccc2Sc2ccc(Cl)cc21 | > 200 µM | 61.7 | –
CCOC(=O)c1c(C)[nH]c(=S)c(C#N)c1-c1ccc(Cl)cc1 | > 200 µM | 43.7 | –
[N-]=[N+]=Nc1ccc2c(c1)Sc1ccccc1N2CCCCN1CCN(C(=O)CCNC(=O)Cc2ccc(C(=O)c3ccccc3)cc2)CC1 | > 200 µM | 3.89 | –
Cc1nc(C)c(N2CCN(CN)CC2)c(=O)[nH]1 | > 200 µM | > 200 | –
CC(CCC=C(c1cc(Cl)c(O)c(C(=O)O)c1)c1cc(Cl)c(O)c(C(=O)O)c1)C1CCC2C3CC[C@@H]4CCCC[C@]4(C)C3CC[C@]12C (some centres not stated) | > 7.24 µM | > 7.24 | –
OC(c1cccnc1)C(F)(F)c1nc2ccccc2o1 (configuration not stated) | > 200 µM | > 200 | –
CCn1cnc2[nH]cc(C#N)c2c1=O | > 200 µM | > 200 | –
C/C(=N/NC(N)=S)C(CN(C)C)C(C1=C(O)c2ccccc2OC1)c1ccccc1 (configuration not stated) | > 141 µM | 107 | –
COc1ccc(N2C(=Nc3ccccc3)SC(=N/S(=O)(=O)c3ccccc3)/C2=N\S(=O)(=O)c2ccccc2)cc1 | > 200 µM | 11.7 | –
c1ccc(N=C2c3ccccc3C3=NCCCN32)cc1 | > 100 µM | > 100 | –
COc1ccc2ccc3c(CCN(C)C#N)cc4c(c3c2c1OC(C)=O)OCO4 | > 34.7 µM | > 34.7 | –
CCOC(=O)c1c(NC(=S)NCc2ccccc2)sc2c1CCN(C)C2 | > 151 µM | 95.5 | –
OC(CNc1ncccn1)c1ccccc1 (configuration not stated) | > 200 µM | > 200 | –

Structure (SMILES) | EC50 | IC50 [µM] | outcome
S=c1nc2sc3c(c2c(Nc2ccc(Cl)cc2)[nH]1)CCCC3 | 43.7 µM | 132 | –
N#Cc1sc2c(c1OC(=O)c1ccc(C(F)(F)F)cc1)c(=O)n(-c1ccccc1)c(=S)n2-c1ccccc1 | > 200 µM | 2.24 | –
CCOC(=O)C1(C)CCC(C(=O)OC)C1=O (configuration not stated) | > 794 µM | 52.5 | –
CCOC(=O)CCC(NC(=O)OCc1ccccc1)C(=O)NC(CCC(=O)OCC)C(=O)NC(CCC(=O)OCC)C(=O)NNC(=O)OC(C)(C)C (configuration not stated) | > 200 µM | > 200 | –
O=C(NCCc1ccccn1)c1ccc2cc(C(=O)N3CC(CCl)c4ccc([N+](=O)[O-])cc43)[nH]c2c1 (configuration not stated) | > 200 µM | 74.1 | –
CN(C)CCNC(=O)c1cccc(C(C)(C)C)c1[N+](=O)[O-] | > 200 µM | 135 | –
CN(C(=O)c1ccc(Cl)cc1)C(=S)N1CCN(c2ccccn2)CC1 | > 69.2 µM | 61.7 | –
CCN(CC)C1Oc2cc3c(cc2C(c2cccc(OC)c2OC)C1C)OCO3 (configuration not stated) | > 200 µM | 1.58 | –
O=c1cc(CN2CCCCC2)[nH]c2c1ccc1nc(CN3CCCCC3)cc(=O)n12 | > 100 µM | > 100 | –
C=CCNC(=O)N(CCCC(NC(C)=O)C(=O)NCc1ccccc1)Cc1ccccc1 (configuration not stated) | > 575 µM | > 575 | –
CN1CCOC(c2ccccc2)O1 (configuration not stated) | > 251 µM | > 251 | –
O=C1[C@@H]2C3SC(c4cc5ccccc5cc43)[C@@H]2C(=O)N1c1ccccc1 | > 72.4 µM | > 72.4 | –
N=c1c2c(ncn1N)CCN(Cc1ccccc1)C2 | > 200 µM | 30.9 | –
Cc1cc2[nH]c3c(C#N)c(O)c(C)c(=O)n3c2cc1C | > 166 µM | > 166 | –
Cc1cc(N(CCC#N)CCC#N)ccc1/C(N=Nc1ccc(Cl)cc1)=N\NC(=O)c1ccccc1 | > 200 µM | 21.4 | –
c1ccc(SC(CNCCc2ccco2)c2ccc3c(c2)OCO3)cc1 (configuration not stated) | > 200 µM | 26.9 | –
CC1(C)O[C@@H](CO)[C@H]([C@@]23OC[C@H]4OC(C)(C)OC4[C@@H]2OC(C)(C)O3)O1 (some centres not stated) | > 200 µM | > 200 | –
CCCCCc1cc(OC(=O)c2c(O)cc(OC)cc2CCCCC)cc(O)c1C(=O)O | > 295 µM | 29.5 | –
Cc1[nH]n(-c2ncc(C(=O)O)c(=O)[nH]2)c(=O)c1CCO | > 200 µM | > 200 | –
CCOC(=O)C(=O)Nc1c(C)cccc1CC | > 776 µM | > 776 | –
CONC(CC(=O)c1ccccc1)c1ccccc1 (configuration not stated) | > 4.07 µM | > 4.07 | –

Structure (SMILES) | EC50 | IC50 [µM] | outcome
CN=Cc1ccccc1O.CN=Cc1ccccc1O.[Cu+2] | > 200 µM | 11.2 | –
O=C(c1ccc(Cl)cc1Cl)N(C(=O)N1CCCCC1)c1ccccc1 | > 200 µM | > 200 | –
[N-]=[N+]=Nc1nc2ccccc2c(N=[N+]=[N-])c1Cl | > 200 µM | 132 | –
O=C(c1ccccc1)n1cc(-c2ccccc2)c2c(=O)[nH]cnc21 | > 200 µM | > 100 | –
Cc1ccc(-n2c3nc(=O)n(C)c(=O)c-3nc3ccccc32)c(C)c1 | – | – | inactive
O=C(/C=C/C(Cl)(Cl)Cl)Nc1ccc(Cl)cc1 | > 200 µM | 10.2 | –
NC(CSS(=O)(=O)O)=NCC12CC3CC(CC(C3)C1)C2 | > 200 µM | 32.4 | –
COc1ccc(-c2csc3c2-n2cccc2C3=O)cc1 | > 2 µM | 0.0363 | –
CC1OC(OCC2OC(Oc3c(-c4ccc(O)c(O)c4)oc4cc(O)cc(O)c4c3=O)C(O)C(O)C2O)C(O)C(O)C1O (configuration not stated) | > 200 µM | 1.02 | inactive
O=[N+]([O-])c1ccc(Cl)c(C=NC23CC4CC(CC(C4)C2)C3)c1 | > 200 µM | 3.89 | –
Oc1cccc2c(Br)ccnc12 | > 20 µM | 5.13 | –
C=C1C(=O)OC2CC(C)C(/C=C/C(C)=O)=CCC12 (configuration not stated) | > 363 µM | 56.2 | –
CCCCCCCCCCCCCC(=O)NCO | – | – | inactive
NCCCCC(=O)NC(CCCCNC(=O)OCc1ccccc1)C(=O)NCCCCC(=O)NC(CCCCNC(=O)OCc1ccccc1)C(=O)NCCCCC(=O)NC(CCCCNC(=O)OCc1ccccc1)C(=O)NCCCCC(=O)NC(CCCCNC(=O)OCc1ccccc1)C(=O)NCCCCC(=O)NC(CCCCNC(=O)OCc1ccccc1)C(=O)NCCCCC(=O)NC(CCCCNC(=O)OCc1ccccc1)C(=O)NCCCCC(=O)NC(CCCCNC(=O)OCc1ccccc1)C(=O)O (configuration not stated) | > 7.08 µM | > 7.08 | –
CC(C)(CC(O)C#N)/[N+]([O-])=[N+](\[O-])C(C)(C)CC(O)C#N (configuration not stated) | – | – | inactive
CC1(C)C=[N+]([O-])C(C)(C)N1 | > 200 µM | > 200 | –
COc1cc(C)c(O)c(C/C=C(\C)CC2=C[C@@]3(C)CCC[C@@]3(C)[C@]3(C=CC(C)(C)O3)O2)c1 | > 40.7 µM | 11 | –
COc1ccc(N(C)Sc2ccccc2)cc1 | > 200 µM | 38 | –
O=C(/C=C/c1ccc(Cl)c(Cl)c1)Oc1ccc(/C=C2\CCCCC2=O)cc1 | > 100 µM | 5.25 | –
Cc1ccc(NC(Nc2ccc(C)cc2C)=C(C(Cl)=C(Cl)Cl)[N+](=O)[O-])c(C)c1 | > 200 µM | 7.94 | –
COC(=O)C1C=NNC1C(=O)OC (configuration not stated) | – | – | inactive

Structure (SMILES) | EC50 | IC50 [µM] | outcome
CC1NC(=O)[C@H](C)N(C)C(=O)[C@@H]2CCCN2C(=O)[C@@H](NC(=O)C(Cc2ccccc2)NC(=O)/C=C/C=C/C=C/C=C/C=C/C(=O)NC2=C(O)CCC2=O)COC(=O)[C@@H]2CCCN2C1=O (some centres not stated) (X16-[ξF]SP[NMeA][ξA]P; ester 2-C) | > 151 µM | > 151 | –
O=C(O)CSC(=S)NCCNC(=S)SCC(=O)O | > 95.5 µM | 72.4 | –
COc1ccc(/C=C\c2cc(OC)c(OC)c(OC)c2)cc1O | > 214 µM | 0.0692 | –
O=C1NC2ON=C(c3ccccc3)C2C2ON=C(c3ccccc3)N12 (configuration not stated) | > 200 µM | 37.2 | –
S=C(Nc1ccc2c(c1)oc1ccccc12)c1cccnc1 | 67.6 µM | > 200 | –
O=c1ccc2ccc(S)cc2o1 | > 200 µM | 32.4 | –
CCCCCCCCCCCCCCCCNC(=O)/C(=C\c1ccc(Cl)c(Cl)c1)NC(=O)c1ccccc1 | > 100 µM | 20 | –
CCCCCCCCCCCCCCCCCCCCC(C(=O)OCC)S(=O)(=O)O (configuration not stated) | > 100 µM | 19.5 | –
O=C(Cn1c2ccc(Br)cc2c2nc3ccccc3nc21)NCc1ccccc1 | > 100 µM | > 100 | –
Cc1cn(C2CC(/[N+]([O-])=N/Nc3ccc([N+](=O)[O-])cc3)C(CO[Si](C)(C)C(C)(C)C)O2)c(=O)[nH]c1=O (configuration not stated) | > 200 µM | 7.41 | –
CC1(C)OC2OC(C(O)COC(=O)c3ccccc3)C(F)C2O1 (configuration not stated) | > 209 µM | > 209 | –
Cc1c(C(=O)O)oc2ccc([N+](=O)[O-])cc12 | – | – | inactive
O=c1oc2c(c(=O)n1-c1ccccc1)CC1(CCCCC1)C2 | > 200 µM | > 200 | –
O=c1[nH]ncc2c1ncn2C1CCC(CO)O1 (configuration not stated) | 195 µM | > 200 | –
O=C1C=C(c2[nH]c3ccccc3c2C2=CC(=O)c3ccccc3C2=O)C(=O)c2ccccc21 | – | – | inactive
Cc1cc(Cl)ccc1NC(=O)C1C(=O)N(c2ccc(Cl)cc2C)C(=O)/C1=N\NC(N)=S (configuration not stated) | > 11 µM | > 11 | –
COc1cccc(Nc2nc(NNC(=O)Cc3ccccc3)nc(NNC(=O)c3ccncc3)n2)c1 | > 200 µM | > 200 | –
CN(CCSCC(N)C(=O)O)CCSCC(N)C(=O)O (configuration not stated) | > 87.1 µM | > 87.1 | –
